From patent US20240252488A1 (KOREA RESEARCH INSTITUTE OF CHEMICAL TECHNOLOGY, priority 2020, published 2024)

Key:
[1] = target: T1, MLKL (Homo sapiens, UniProt Q8NB16); experiment: Measurement of binding affinity with MLKL receptor (competitive binding assay, Kd); set-up: made in house; host or cells: HEK 293 cell line (T7 phage in E. coli BL21-derived host is also described)
T1 sequence (Q8NB16 1-471): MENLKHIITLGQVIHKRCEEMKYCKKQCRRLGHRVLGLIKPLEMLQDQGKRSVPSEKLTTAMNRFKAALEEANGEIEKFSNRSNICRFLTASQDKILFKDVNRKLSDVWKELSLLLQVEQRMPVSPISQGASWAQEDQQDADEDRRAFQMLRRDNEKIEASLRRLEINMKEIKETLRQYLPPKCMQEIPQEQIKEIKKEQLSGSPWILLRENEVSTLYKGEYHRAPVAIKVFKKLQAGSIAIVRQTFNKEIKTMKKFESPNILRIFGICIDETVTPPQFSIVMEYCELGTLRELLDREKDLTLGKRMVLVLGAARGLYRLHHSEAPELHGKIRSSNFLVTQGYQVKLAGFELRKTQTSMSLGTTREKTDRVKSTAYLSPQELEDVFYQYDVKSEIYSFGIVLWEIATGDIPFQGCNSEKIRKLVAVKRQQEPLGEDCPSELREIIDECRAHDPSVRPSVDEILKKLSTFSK
In short: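 Kd from an immobilized-ligand competition format: the DNA-tagged kinase from HEK 293 expression is eluted and quantified by qPCR. Compounds added from 111× DMSO stocks, final DMSO 0.9%.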

[2] = target: T1, MLKL; experiment: MLKL degradation assay in HepG2 cell line (western blot); type: cell-based; set-up: endogenous in cells; host or cells: HepG2 or HaCaT; conditions: cell line not given; for Degradation assay (Degradation %) 1 μM: compound 1 μM; for Degradation assay (Degradation %) 10 μM: compound 10 μM
In short: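 Degradation is judged from MLKL band intensity on immunoblots of HepG2 lysates taken after 20-24 hours of compound at final 1 or 10 μM.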

[3] = system: FADD−/− Jurkat cells; experiment: Necroptosis inhibition assay, TNF-α-induced necroptosis (CellTiter-Glo 2.0); type: cell-based, human; conditions: TNF-α 15 ng/mL; for Necroptosis inhibition assay (Rescue %) 1 μM: compound 1 μM; for Necroptosis inhibition assay (Rescue %) 10 μM: compound 10 μM
In short: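 Tested at three fixed concentrations (0.1, 1, 10 μM final) with a 30-minute room-temperature preincubation ahead of 15 ng/mL TNF-α challenge lasting 20 to 24 hours. Inhibition rate and cytotoxicity derive from ATP luminescence.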

## Nc1ncc(-c2cn(C3CCN(CC4CCN(C(=O)CNc5ccc6c(c5)C(=O)N(C5CCC(=O)NC5=O)C6=O)CC4)CC3)nn2)nc1C(=O)OC(C(=O)Nc1ccc(F)cc1)c1ccccc1 (stereo not drawn) [TDH-223, 2-((4-fluorophenyl)amino)-2-oxo-1-phenylethyl 3-amino-6-(1-(1-((1-((2-(2,6-dioxopiperidin-3-yl)-1,3-dioxoisoindolin-5-yl)glycyl)piperidin-4-yl)methyl)piperidin-4-yl)-1H-1,2,3-triazol-4-yl)pyrazine-2-carboxylate]
[1]
  Kd: 23 nM
[2]
  Degradation assay (Degradation %) 1 μM: 29.38%
  Degradation assay (Degradation %) 10 μM: 12.51%
[3]
  Necroptosis inhibition assay (Rescue %) 1 μM: 34.97%
  Necroptosis inhibition assay (Rescue %) 10 μM: 23.64%

## Nc1ncc(-c2cn(C3CCN(CC4CCN(C(=O)CNc5cccc6c5C(=O)N(C5CCC(=O)NC5=O)C6=O)CC4)CC3)nn2)nc1C(=O)OC(C(=O)Nc1ccc(F)cc1)c1ccccc1 (stereo not drawn) [TDH-224, 2-((4-fluorophenyl)amino)-2-oxo-1-phenylethyl 3-amino-6-(1-(1-((1-((2-(2,6-dioxopiperidin-3-yl)-1,3-dioxoisoindolin-4-yl)glycyl)piperidin-4-yl)methyl)piperidin-4-yl)-1H-1,2,3-triazol-4-yl)pyrazine-2-carboxylate]
[1]
  Kd: 19 nM
[2]
  Degradation assay (Degradation %) 1 μM: 49.26%
  Degradation assay (Degradation %) 10 μM: 56.93%
[3]
  Necroptosis inhibition assay (Rescue %) 1 μM: 63.63%
  Necroptosis inhibition assay (Rescue %) 10 μM: 67.66%

## Nc1ncc(-c2cn(C3CCN(CC4CCN(c5cccc6c5C(=O)N(C5CCC(=O)NC5=O)C6=O)CC4)CC3)nn2)nc1C(=O)OC(C(=O)Nc1ccc(F)cc1)c1ccccc1 (stereo not drawn) [TDH-225, 2-((4-fluorophenyl)amino)-2-oxo-1-phenylethyl 3-amino-6-(1-(1-((1-(2-(2,6-dioxopiperidin-3-yl)-1,3-dioxoisoindolin-4-yl)piperidin-4-yl)methyl)piperidin-4-yl)-1H-1,2,3-triazol-4-yl)pyrazine-2-carboxylate]
[1]
  Kd: 8 nM
[2]
  Degradation assay (Degradation %) 1 μM: 36.29%
  Degradation assay (Degradation %) 10 μM: 25.24%
[3]
  Necroptosis inhibition assay (Rescue %) 1 μM: 55.04%
  Necroptosis inhibition assay (Rescue %) 10 μM: 49.01%

## Nc1ncc(-c2cn(C3CCN(CC4CCN(c5ccc6c(c5)C(=O)N(C5CCC(=O)NC5=O)C6=O)CC4)CC3)nn2)nc1C(=O)OC(C(=O)Nc1ccc(F)cc1)c1ccccc1 (stereo not drawn) [TDH-226, 2-((4-fluorophenyl)amino)-2-oxo-1-phenylethyl 3-amino-6-(1-(1-((1-(2-(2,6-dioxopiperidin-3-yl)-1,3-dioxoisoindolin-5-yl)piperidin-4-yl)methyl)piperidin-4-yl)-1H-1,2,3-triazol-4-yl)pyrazine-2-carboxylate]
[1]
  Kd: 16 nM
[2]
  Degradation assay (Degradation %) 10 μM: 36.06%
[3]
  Necroptosis inhibition assay (Rescue %) 1 μM: 36.17%
  Necroptosis inhibition assay (Rescue %) 10 μM: 17.82%

## Nc1ncc(-c2ccc(N3CCN(CC4CCN(C(=O)CNc5ccc6c(c5)C(=O)N(C5CCC(=O)NC5=O)C6=O)CC4)CC3)nc2)nc1C(=O)OC(C(=O)Nc1ccc(F)cc1)c1ccccc1 (stereo not drawn) [TDH-233, 2-((4-fluorophenyl)amino)-2-oxo-1-phenylethyl 3-amino-6-(6-(4-((1-((2-(2,6-dioxopiperidin-3-yl)-1,3-dioxoisoindolin-5-yl)glycyl)piperidin-4-yl)methyl)piperazin-1-yl)pyridin-3-yl)pyrazine-2-carboxylate]
[1]
  Kd: 160 nM
[2]
  Degradation assay (Degradation %) 1 μM: 15.59%
  Degradation assay (Degradation %) 10 μM: 16.2%
[3]
  Necroptosis inhibition assay (Rescue %) 1 μM: 23.37%
  Necroptosis inhibition assay (Rescue %) 10 μM: 4.71%

## Nc1ncc(-c2cnn(C3CCN(CC4CCN(CC(=O)NCCNc5cccc6c5C(=O)N(C5CCC(=O)NC5=O)C6=O)CC4)CC3)c2)nc1C(=O)OC(C(=O)Nc1ccc(F)cc1)c1ccccc1 (stereo not drawn) [TDH-234, 2-((4-fluorophenyl)amino)-2-oxo-1-phenylethyl 3-amino-6-(1-(1-((1-(2-((2-((2-(2,6-dioxopiperidin-3-yl)-1,3-dioxoisoindolin-4-yl)amino)ethyl)amino)-2-oxoethyl)piperidin-4-yl)methyl)piperidin-4-yl)-1H-pyrazol-4-yl)pyrazine-2-carboxylate]
[1]
  Kd: 1.6 nM
[2]
  Degradation assay (Degradation %) 1 μM: 64.08%
  Degradation assay (Degradation %) 10 μM: 54.89%
[3]
  Necroptosis inhibition assay (Rescue %) 1 μM: 35.55%
  Necroptosis inhibition assay (Rescue %) 10 μM: 26.56%

## Nc1ncc(-c2cnn(C3CCN(CC4CCN(CC(=O)NCCCNc5cccc6c5C(=O)N(C5CCC(=O)NC5=O)C6=O)CC4)CC3)c2)nc1C(=O)OC(C(=O)Nc1ccc(F)cc1)c1ccccc1 (stereo not drawn) [TDH-235, 2-((4-fluorophenyl)amino)-2-oxo-1-phenylethyl 3-amino-6-(1-(1-((1-(2-((3-((2-(2,6-dioxopiperidin-3-yl)-1,3-dioxoisoindolin-4-yl)amino)propyl)amino)-2-oxoethyl)piperidin-4-yl)methyl)piperidin-4-yl)-1H-pyrazol-4-yl)pyrazine-2-carboxylate]
[1]
  Kd: 8.5 nM
[2]
  Degradation assay (Degradation %) 1 μM: 45.01%
  Degradation assay (Degradation %) 10 μM: 49.89%
[3]
  Necroptosis inhibition assay (Rescue %) 1 μM: 7.64%
  Necroptosis inhibition assay (Rescue %) 10 μM: 19.27%

## Nc1ncc(-c2cnn(C3CCN(CC4CCN(CC(=O)NC5CCN(c6cccc7c6C(=O)N(C6CCC(=O)NC6=O)C7=O)CC5)CC4)CC3)c2)nc1C(=O)OC(C(=O)Nc1ccc(F)cc1)c1ccccc1 (stereo not drawn) [TDH-236, 2-((4-fluorophenyl)amino)-2-oxo-1-phenylethyl 3-amino-6-(1-(1-((1-(2-((1-(2-(2,6-dioxopiperidin-3-yl)-1,3-dioxoisoindolin-4-yl)piperidin-4-yl)amino)-2-oxoethyl)piperidin-4-yl)methyl)piperidin-4-yl)-1H-pyrazol-4-yl)pyrazine-2-carboxylate]
[1]
  Kd: 4.9 nM
[2]
  Degradation assay (Degradation %) 1 μM: 32.16%
  Degradation assay (Degradation %) 10 μM: 27.8%
[3]
  Necroptosis inhibition assay (Rescue %) 1 μM: 42.35%
  Necroptosis inhibition assay (Rescue %) 10 μM: 46.48%

## Nc1ncc(-c2cnn(C3CCN(CC4CCN(CC(=O)N5CCN(c6cccc7c6C(=O)N(C6CCC(=O)NC6=O)C7=O)CC5)CC4)CC3)c2)nc1C(=O)OC(C(=O)Nc1ccc(F)cc1)c1ccccc1 (stereo not drawn) [TDH-237, 2-((4-fluorophenyl)amino)-2-oxo-1-phenylethyl 3-amino-6-(1-(1-((1-(2-(4-(2-(2,6-dioxopiperidin-3-yl)-1,3-dioxoisoindolin-4-yl)piperazin-1-yl)-2-oxoethyl)piperidin-4-yl)methyl)piperidin-4-yl)-1H-pyrazol-4-yl)pyrazine-2-carboxylate]
[1]
  Kd: 1.8 nM
[2]
  Degradation assay (Degradation %) 1 μM: 56.98%
  Degradation assay (Degradation %) 10 μM: 65.18%
[3]
  Necroptosis inhibition assay (Rescue %) 1 μM: 67.77%
  Necroptosis inhibition assay (Rescue %) 10 μM: 34.51%

## Nc1ncc(-c2cnn(C3CCN(CC4CCN(CC(=O)N5CCC(Nc6cccc7c6C(=O)N(C6CCC(=O)NC6=O)C7=O)CC5)CC4)CC3)c2)nc1C(=O)OC(C(=O)Nc1ccc(F)cc1)c1ccccc1 (stereo not drawn) [TDH-238, 2-((4-fluorophenyl)amino)-2-oxo-1-phenylethyl 3-amino-6-(1-(1-((1-(2-(4-((2-(2,6-dioxopiperidin-3-yl)-1,3-dioxoisoindolin-4-yl)amino)piperidin-1-yl)-2-oxoethyl)piperidin-4-yl)methyl)piperidin-4-yl)-1H-pyrazol-4-yl)pyrazine-2-carboxylate]
[1]
  Kd: 1.7 nM
[2]
  Degradation assay (Degradation %) 1 μM: 30.48%
  Degradation assay (Degradation %) 10 μM: 18.31%
[3]
  Necroptosis inhibition assay (Rescue %) 1 μM: 43.63%
  Necroptosis inhibition assay (Rescue %) 10 μM: 31.99%

## Nc1ncc(-c2cnn(C3CCN(CCCN4CCN(C(=O)C5CCN(c6cccc7c6C(=O)N(C6CCC(=O)NC6=O)C7=O)CC5)CC4)CC3)c2)nc1C(=O)OC(C(=O)Nc1ccc(F)cc1)c1ccccc1 (stereo not drawn) [TDH-239, 2-((4-fluorophenyl)amino)-2-oxo-1-phenylethyl 3-amino-6-(1-(1-(3-(4-(1-(2-(2,6-dioxopiperidin-3-yl)-1,3-dioxoisoindolin-4-yl)piperidine-4-carbonyl)piperazin-1-yl)propyl)piperidin-4-yl)-1H-pyrazol-4-yl)pyrazine-2-carboxylate]
[1]
  Kd: 3.8 nM
[2]
  Degradation assay (Degradation %) 1 μM: 53.9%
  Degradation assay (Degradation %) 10 μM: 65.78%
[3]
  Necroptosis inhibition assay (Rescue %) 1 μM: 40.3%
  Necroptosis inhibition assay (Rescue %) 10 μM: 23.29%
